# From US20260294915A1, “COMBINATION THERAPY COMPRISING A MAT2A INHIBITOR AND A TOPOISOMERASE INHIBITOR, A SPLICING INHIBITOR SULFONAMIDE, OR A KIF18 INHIBITOR” (IDEAYA BIOSCIENCES, INC., priority 2023, published 2026)
# Where two headings read alike, the source gives them in different places.
# Experiments:
# Assay in all cases: 10-day proliferation (CTG), equimolar Compound A + SPLAM (Example 4)
# Assay type in all cases: cell-based
# TCCSUP = settings: single agent or 1:1 combo; for IC50: Homo sapiens, TCC-SUP, read-out: gIC50; for IC80: read-out: gIC80; for IC90: read-out: gIC90
# Method: (§1) A 10-day proliferation assay was performed in a panel of 5 MTAP-deficient and 2 wild type non-small cell lung and bladder cancer cell lines. Optimal cell seeding for all cell lines was determined by assessing the growth over a range of seeding densities in a 384-well format to identify conditions that permitted proliferation for 10 days. Cells were then plated at the optimal seeding density and treated with 20-point, two-fold dilution series of Compound A, the splicing inhibitor sulfonamide (SPLAM), or an equimolar combination of Compound A and the SPLAM. Combinations tested included Compound A in combination with four structurally different SPLAMs. Concentrations tested for Compound A and each SPLAM alone or in combination ranged from 0.04 nM to 20,000 nM. A plate of cells was harvested at the time of compound addition to quantify the number of cells at the start of the combination (T0). For cell quantification, the harvested cells were lysed with Promega CellTiter-Glo (CTG) reagent according to the manufacturer's protocol and the chemiluminescent signal was detected on a Synergy Neo plate reader. CTG estimates cell number through detection of cellular ATP levels. Cells were incubated with the drug combinations at 37° C. with 5% CO2 for 10 days. Cells were then lysed with CTG and the chemiluminescent signal was measured.
# (§2) CTG values obtained after the 10-day treatment were background subtracted and expressed as a percent of the T0 value. Data were plotted against compound concentration and fit with a four-parameter equation to generate dose response curves for each single agent and the equimolar combination. Growth ICx (gICx) values ranging from gIC30 to gIC100 were interpolated from the fitted curves. Synergistic growth inhibition was assessed by determination of Combination Index (CI) values at these various points across the titration using the mutually non-exclusive equation [Chou, 1983; Chou, 1981] shown below where A equals the gICx value of Compound A, B equals the gICx value of the SPLAM, and A+B or B+A equals the gICx value of the equimolar combination. A Combination Index value less than 1.0 was considered synergistic.
# SW900 = settings: single agent or 1:1 combo; for IC50: Homo sapiens, read-out: gIC50; for IC80: read-out: gIC80; for IC90: read-out: gIC90
# Method: as §1, §2
# NCI-H520 = settings: single agent or 1:1 combo; for IC50: Homo sapiens, read-out: gIC50; for IC80: read-out: gIC80; for IC90: read-out: gIC90
# Method: as §1, §2
# RT112/84 = settings: single agent or 1:1 combo; for IC50: Homo sapiens, read-out: gIC50; for IC80: read-out: gIC80; for IC90: read-out: gIC90
# Method: as §1, §2
# NCI-H838 = settings: single agent or 1:1 combo; for IC50: Homo sapiens, read-out: gIC50; for IC80: read-out: gIC80; for IC90: read-out: gIC90
# Method: as §1, §2
smiles,measurement,setting,value
Nc1nc(=O)n(-c2ccccc2Cl)c2nc(C(F)(F)F)ccc12 [Compound A],gIC30,TCCSUP; 10 days,14.461 µM
same,gIC40,TCCSUP; 10 days,19.467 µM
same,gIC60,TCCSUP; 10 days,20 µM
same,gIC70,TCCSUP; 10 days,20 µM
same,gIC100,TCCSUP; 10 days,20 µM
same,IC50,"TCCSUP; 240 h, 10 days",20 µM
same,IC50,TCCSUP,20 µM
same,gIC30,TCCSUP,14.461 µM
same,gIC40,TCCSUP,19.467 µM
same,gIC60,TCCSUP,20 µM
same,gIC70,TCCSUP,20 µM
same,gIC100,TCCSUP,20 µM
same,gIC30,SW900; 10 days,19.994 µM
same,gIC40,SW900; 10 days,20 µM
same,gIC60,SW900; 10 days,20 µM
same,gIC70,SW900; 10 days,20 µM
same,gIC100,SW900; 10 days,20 µM
same,IC50,"SW900; SW900, 240 h, 10 days",20 µM
same,IC50,SW900; SW900,20 µM
same,gIC30,SW900,19.994 µM
same,gIC40,SW900,20 µM
same,gIC60,SW900,20 µM
same,gIC70,SW900,20 µM
same,gIC100,SW900,20 µM
same,gIC30,NCI-H520; 10 days,20 µM
same,gIC40,NCI-H520; 10 days,20 µM
same,gIC60,NCI-H520; 10 days,20 µM
same,gIC70,NCI-H520; 10 days,20 µM
same,gIC100,NCI-H520; 10 days,20 µM
same,IC50,"NCI-H520; NCI-H520, 240 h, 10 days",20 µM
same,IC50,NCI-H520; NCI-H520,20 µM
same,gIC30,NCI-H520,20 µM
same,gIC40,NCI-H520,20 µM
same,gIC60,NCI-H520,20 µM
same,gIC70,NCI-H520,20 µM
same,gIC100,NCI-H520,20 µM
same,gIC30,RT112/84; 10 days,345 nM
same,gIC40,RT112/84; 10 days,1111 nM
same,gIC60,RT112/84; 10 days,12.951 µM
same,gIC70,RT112/84; 10 days,20 µM
same,gIC100,RT112/84; 10 days,20 µM
same,IC50,"RT112/84; RT112/84, 240 h, 10 days",3.41 µM
same,IC50,RT112/84; RT112/84,3.41 µM
same,gIC30,RT112/84,345 nM
same,gIC40,RT112/84,1111 nM
same,gIC60,RT112/84,12.951 µM
same,gIC70,RT112/84,20 µM
same,gIC100,RT112/84,20 µM
same,gIC30,NCI-H838; 10 days,102 nM
same,gIC40,NCI-H838; 10 days,189 nM
same,gIC60,NCI-H838; 10 days,11.309 µM
same,gIC70,NCI-H838; 10 days,20 µM
same,gIC100,NCI-H838; 10 days,20 µM
same,IC50,"NCI-H838; NCI-H838, 240 h, 10 days",0.594 µM
same,IC50,NCI-H838; NCI-H838,0.594 µM
same,gIC30,NCI-H838,102 nM
same,gIC40,NCI-H838,189 nM
same,gIC60,NCI-H838,11.309 µM
same,gIC70,NCI-H838,20 µM
same,gIC100,NCI-H838,20 µM
"Cc1ccc(NS(=O)(=O)c2cccc(C#N)c2)c2[nH]cc(C#N)c12 [Compound E7820, 3-cyano-N-(3-cyano-4-methyl-1H-indol-7-yl)benzenesulfonamide]",gIC30,TCCSUP; 10 days,20 µM
same,gIC40,TCCSUP; 10 days,20 µM
same,gIC60,TCCSUP; 10 days,20 µM
same,gIC70,TCCSUP; 10 days,20 µM
same,gIC100,TCCSUP; 10 days,20 µM
same,IC80,TCCSUP; 10 days,20 µM
same,IC90,TCCSUP; 10 days,20 µM
same,IC50,"TCCSUP; 240 h, 10 days",20 µM
same,gIC30,SW900; 10 days,0.284 µM
same,gIC40,SW900; 10 days,0.29 µM
same,gIC60,SW900; 10 days,0.303 µM
same,gIC70,SW900; 10 days,0.309 µM
same,gIC100,SW900; 10 days,0.362 µM
same,IC80,SW900; 10 days,0.318 µM
same,IC90,SW900; 10 days,0.33 µM
same,IC50,"SW900; SW900, 240 h, 10 days",0.296 µM
same,gIC30,NCI-H520; 10 days,0.484 µM
same,gIC40,NCI-H520; 10 days,0.596 µM
same,gIC60,NCI-H520; 10 days,0.92 µM
same,gIC70,NCI-H520; 10 days,1.214 µM
same,gIC100,NCI-H520; 10 days,20 µM
same,IC80,NCI-H520; 10 days,1.84 µM
same,IC90,NCI-H520; 10 days,12 µM
same,IC50,"NCI-H520; NCI-H520, 240 h, 10 days",0.734 µM
same,gIC30,RT112/84; 10 days,213 nM
same,gIC40,RT112/84; 10 days,237 nM
same,gIC60,RT112/84; 10 days,0.29 µM
same,gIC70,RT112/84; 10 days,0.326 µM
same,gIC100,RT112/84; 10 days,10.429 µM
same,IC80,RT112/84; 10 days,0.375 µM
same,IC90,RT112/84; 10 days,0.466 µM
same,IC50,"RT112/84; RT112/84, 240 h, 10 days",0.262 µM
same,gIC30,NCI-H838; 10 days,328 nM
same,gIC40,NCI-H838; 10 days,357 nM
same,gIC60,NCI-H838; 10 days,0.425 µM
same,gIC70,NCI-H838; 10 days,0.472 µM
same,gIC100,NCI-H838; 10 days,20 µM
same,IC80,NCI-H838; 10 days,0.539 µM
same,IC90,NCI-H838; 10 days,0.666 µM
same,IC50,"NCI-H838; NCI-H838, 240 h, 10 days",0.388 µM
"NS(=O)(=O)c1ccc(S(=O)(=O)Nc2cccc3c(Cl)c[nH]c23)cc1 [Indisulam, N-(3-chloro-1H-indol-7-yl)benzene-1,4-disulfonamide]",gIC30,TCCSUP; 10 days,20 µM
same,gIC40,TCCSUP; 10 days,20 µM
same,gIC60,TCCSUP; 10 days,20 µM
same,gIC70,TCCSUP; 10 days,20 µM
same,gIC100,TCCSUP; 10 days,20 µM
same,IC80,TCCSUP; 10 days,20 µM
same,IC90,TCCSUP; 10 days,20 µM
same,IC50,"TCCSUP; 240 h, 10 days",20 µM
same,gIC30,SW900; 10 days,0.295 µM
same,gIC40,SW900; 10 days,0.3 µM
same,gIC60,SW900; 10 days,0.31 µM
same,gIC70,SW900; 10 days,0.315 µM
same,gIC100,SW900; 10 days,0.357 µM
same,IC80,SW900; 10 days,0.321 µM
same,IC90,SW900; 10 days,0.331 µM
same,IC50,"SW900; SW900, 240 h, 10 days",0.305 µM
same,gIC30,NCI-H520; 10 days,0.47 µM
same,gIC40,NCI-H520; 10 days,0.546 µM
same,gIC60,NCI-H520; 10 days,0.743 µM
same,gIC70,NCI-H520; 10 days,0.897 µM
same,gIC100,NCI-H520; 10 days,20 µM
same,IC80,NCI-H520; 10 days,1.16 µM
same,IC90,NCI-H520; 10 days,2.07 µM
same,IC50,"NCI-H520; NCI-H520, 240 h, 10 days",0.633 µM
same,gIC30,RT112/84; 10 days,249 nM
same,gIC40,RT112/84; 10 days,273 nM
same,gIC60,RT112/84; 10 days,0.327 µM
same,gIC70,RT112/84; 10 days,0.363 µM
same,gIC100,RT112/84; 10 days,20 µM
same,IC80,RT112/84; 10 days,0.414 µM
same,IC90,RT112/84; 10 days,0.51 µM
same,IC50,"RT112/84; RT112/84, 240 h, 10 days",0.298 µM
same,gIC30,NCI-H838; 10 days,276 nM
same,gIC40,NCI-H838; 10 days,300 nM
same,gIC60,NCI-H838; 10 days,0.355 µM
same,gIC70,NCI-H838; 10 days,0.393 µM
same,gIC100,NCI-H838; 10 days,20 µM
same,IC80,NCI-H838; 10 days,0.448 µM
same,IC90,NCI-H838; 10 days,0.551 µM
same,IC50,"NCI-H838; NCI-H838, 240 h, 10 days",0.325 µM
